Test results published in publication PMC4669722, “Antitumour potential of BPT: a dual inhibitor of cdk4 and tubulin polymerization” (Cell Death & Disease, 2015).
“Also recorded” adds a separate entry of the source.

Key:
[1] = molecular target: Cdk9-cyclin T1 (Homo sapiens, UniProt P50750); assay: In vitro kinase assay, Cdk9-cyclin T1 (in-house); format: biochemical; details: three independent experiments; read-out: IC50 (mean±S.D.), Cdk9-cyclin T1
Protocol: (§1) The in vitro kinase assays for testing against Cdk4-cyclin D1, Cdk2-cyclin A, Cdk1-cyclin B1 and Cdk9-cyclin T1 were performed in-house. The methodology and results have been reported previously.[20], [30], [31], [32], [45] The kinase profiling for 58 representative kinases was carrried out commercially at Millipore Bioscience Division, Livingston, UK.

[2] = molecular target: Cdk7-cyclin H (Homo sapiens, UniProt P50613); assay: Kinase profiling (Millipore), Cdk7-cyclin H; format: biochemical
Protocol: as §1

[3] = molecular target: PKA (Homo sapiens, UniProt P17612); assay: Kinase profiling (Millipore), PKA; format: biochemical
Protocol: as §1

[4] = molecular target: IGF-1 R (Homo sapiens, UniProt P08069); assay: Kinase profiling (Millipore), IGF-1 R; format: biochemical
Protocol: as §1

[5] = test system: pBluescript plasmid DNA; assay: Topoisomerase I catalysed DNA relaxation or unwinding assay; format: biochemical
Protocol: For assay, 5 nM supercoiled pBluescript d-s plasmid DNA and 10 U of topoisomerase-I active enzyme were used in each reaction well. To ensure that the assay determines the DNA-intercalating property of compounds and not topoisomerase I inhibition, in a parallel experiment relaxed plasmid DNA was first prepared by treating with topo I enzyme for 30 min and then used as an initial substrate for the assay. DNA relaxation assays were performed in the presence or absence of compounds in 40 μl of DNA unwinding assay buffer. After 30 min incubation at 37 °C, reaction mixtures were treated with 3 μl of 250 mM EDTA and extracted with phenol/chloroform. The DNA was dissolved in tris-EDTA buffer, pH 8.0. The samples (20 μl) were treated with 2 μl of 2.5% SDS, mixed with 2.5 μl agarose gel loading buffer (10x) and subjected to electrophoresis on a 0.8% agarose gel without EtBr (separating the DNA in the presence of EtBr would convert the relaxed DNA into the supercoiled form). After the electrophoretic separation, DNA bands were stained with 1 μg/ml EtBr and visualized using a UV illuminator. The compounds were compared with fascaplysin, which is a known DNA-intercalating molecule. Camptothecin, which is a known topoisomerase- I inhibitor, was used to test the activity and inhibition of enzyme.

[6] = test system: LS174T (colorectal carcinoma; p53+, pRb+); assay: Cell proliferation (MTT) assay, LS174T; format: cell-based; details: Homo sapiens, 48 h, read-out: IC50 cell growth inhibition, LS174T
Protocol: (§2) All 10 human cancer cell lines were maintained at 37 °C in 5% CO2 in RPMI-1640 medium, supplemented with 10% foetal calf serum and 100 μg/ml normocin. The 10 cancer cell lines used for screening were all obtained from ATCC (Manassas, VA, USA); they were the NSCLC (a form of cancer that is resistant to chemotherapy) lines: NCI-H460 (pRb^+, p53^+), A549 (pRb^+, p53^+), Calu-1 (pRb^+, p53-null), NCI-H1299 (pRb^+, p53-null), NCI-H358 (pRb-null, p53-null); the colon cancer line LS174T (pRb^+, p53^+); the prostate cancer line PC-3 (pRb^+, p53-null); the pancreatic cancer line MiaPaca (pRb^+, p53-mutant). The genotypes within brackets indicate the status of the tumour suppressor proteins pRb and p53. The mouse embryonic normal hepatic cell line (BNL CL2) and its SV40 large T-antigen-transformed counterpart cell line (BNL SV A.8) were also purchased from ATCC. The large T-antigen inactivates the tumour suppressor proteins p53 and pRb. The detailed procedure of cell proliferation (MTT) assay and IC50 determination was described previously.[32]

[7] = test system: PC-3 (prostate; p53 null, pRb+); assay: Cell proliferation (MTT) assay, PC-3; format: cell-based; details: Homo sapiens, 48 h, read-out: IC50 cell growth inhibition, PC-3
Protocol: as §2

[8] = test system: A549 (NSCLC; p53+, pRb+); assay: Cell proliferation (MTT) assay, A549; format: cell-based; details: Homo sapiens, 48 h, read-out: IC50 cell growth inhibition, A549
Protocol: as §2

[9] = test system: Calu-1 (NSCLC; p53 null, pRb+); assay: Cell proliferation (MTT) assay, Calu-1; format: cell-based, human
Protocol: as §2

[10] = test system: A549 cells; assay: Flow cytometric cell cycle analysis, A549; format: cell-based, human; details: 24 h
Protocol: The untreated (control) and treated (with test compounds) cells were harvested by trypsinization, washed once with PBS and then fixed in 70% chilled (−20 °C) ethanol for minimum 1 h. After the fixation step, cells were centrifuged for 5 min at 3000 × g at room temperature, and the pellet was suspended in PBS containing 50 μg/ml propidium iodide (Sigma-Aldrich, Dorset, UK; cat. no. P-4170) and 0.5 mg/ml DNase-free ribonuclease (Sigma-Aldrich; cat. no. R-5503). The cells were stained for 1 h in the dark at 4 °C. Cell cycle analysis was performed on the Beckman Coulter (Epics Altra) fluorescence-activated cell sorter (Beckman Coulter UK Ltd, Buckinghamshire, UK). To gate all the events that represent single cells, and not cell doublets or cell clumps, the following analyses were performed on the samples. Cytograms of propidium iodide fluorescence peak signal versus integrated fluorescence or the linear signal were plotted. All data points on the straight line were isolated in a single gate and the gated data was further used for plotting a histogram that represents a complete cell cycle. The total number of events was not allowed to exceed 200 events per s. Data acquisition was stopped after a minimum of 10 000 events had been collected.

[11] = test system: tubulin; assay: Cell-free tubulin polymerization assay in vitro; format: biochemical; details: for Vmax of tubulin polymerization: control 19 mOD/min
Protocol: The purified tubulin was obtained commercially (Cytoskeleton Inc., Denver, CO, USA) and the polymerization assays were carried out according to the method described previously.[36] […] The resulting polymerization curves are representative of the three phases of microtubule polymerization, namely nucleation, growth and steady-state equilibrium. Paclitaxel and nocodazole were used in the assay as a known enhancer and inhibitor of tubulin polymerization, respectively. The ability of BPT to inhibit tubulin polymerization in vitro was determined according to the manufacturer's instructions. Briefly, tubulin protein (3 mg/ml) was polymerized in GTP buffer (80 mM PIPES, pH 6.9, 2 mM MgCl2, 0.5 mM EGTA, 10.2% glycerol and 1 mM GTP) in the presence of a range of BPT concentrations at 37 °C in a temperature-regulated Biotech spectrophotometer (Potton, Bedfordshire, UK). The absorbance (at 340 nm) kinetics of 61 cycles for each sample was studied and the readings were recorded at an interval of 1 min.

Cdk9-cyclin T1, sequence (P50750 whole entry): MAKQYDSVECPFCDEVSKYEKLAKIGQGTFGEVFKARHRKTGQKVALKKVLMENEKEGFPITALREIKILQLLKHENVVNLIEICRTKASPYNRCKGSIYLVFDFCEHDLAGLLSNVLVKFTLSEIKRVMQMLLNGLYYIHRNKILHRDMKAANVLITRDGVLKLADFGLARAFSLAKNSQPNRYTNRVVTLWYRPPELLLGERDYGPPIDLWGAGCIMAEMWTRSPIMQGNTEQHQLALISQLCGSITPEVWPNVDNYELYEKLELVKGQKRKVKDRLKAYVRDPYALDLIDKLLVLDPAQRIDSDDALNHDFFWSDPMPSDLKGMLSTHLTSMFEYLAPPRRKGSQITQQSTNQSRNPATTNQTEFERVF
Cdk9-cyclin T1, sequence (O60563 whole entry partner): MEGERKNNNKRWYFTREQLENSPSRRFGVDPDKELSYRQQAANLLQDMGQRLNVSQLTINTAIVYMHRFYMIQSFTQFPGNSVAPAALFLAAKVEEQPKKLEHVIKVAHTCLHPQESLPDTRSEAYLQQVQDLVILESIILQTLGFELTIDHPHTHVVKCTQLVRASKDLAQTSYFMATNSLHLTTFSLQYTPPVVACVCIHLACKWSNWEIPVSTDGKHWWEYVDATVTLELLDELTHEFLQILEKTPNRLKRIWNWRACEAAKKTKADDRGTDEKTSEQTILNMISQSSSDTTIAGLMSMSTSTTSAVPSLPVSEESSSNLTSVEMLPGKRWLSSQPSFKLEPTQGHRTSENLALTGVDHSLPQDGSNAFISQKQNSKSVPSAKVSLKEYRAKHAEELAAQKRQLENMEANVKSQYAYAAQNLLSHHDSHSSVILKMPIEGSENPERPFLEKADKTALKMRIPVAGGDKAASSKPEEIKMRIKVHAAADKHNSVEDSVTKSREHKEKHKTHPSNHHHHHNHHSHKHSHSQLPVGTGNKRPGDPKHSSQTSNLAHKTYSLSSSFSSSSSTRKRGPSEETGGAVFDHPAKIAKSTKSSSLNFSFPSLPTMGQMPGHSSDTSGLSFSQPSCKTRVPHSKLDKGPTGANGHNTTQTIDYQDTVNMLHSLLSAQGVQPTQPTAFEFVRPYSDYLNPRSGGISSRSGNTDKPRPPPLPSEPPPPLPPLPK
Cdk7-cyclin H, sequence (P50613 whole entry): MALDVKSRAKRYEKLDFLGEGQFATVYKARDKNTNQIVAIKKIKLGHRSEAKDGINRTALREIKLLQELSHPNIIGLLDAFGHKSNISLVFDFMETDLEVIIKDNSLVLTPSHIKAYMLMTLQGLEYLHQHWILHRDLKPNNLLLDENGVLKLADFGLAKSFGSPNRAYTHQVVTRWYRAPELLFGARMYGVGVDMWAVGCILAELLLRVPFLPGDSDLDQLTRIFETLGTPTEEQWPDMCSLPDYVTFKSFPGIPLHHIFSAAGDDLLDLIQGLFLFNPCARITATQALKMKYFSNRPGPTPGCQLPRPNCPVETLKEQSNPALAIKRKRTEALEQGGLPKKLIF
Cdk7-cyclin H, sequence (P51946 whole entry partner): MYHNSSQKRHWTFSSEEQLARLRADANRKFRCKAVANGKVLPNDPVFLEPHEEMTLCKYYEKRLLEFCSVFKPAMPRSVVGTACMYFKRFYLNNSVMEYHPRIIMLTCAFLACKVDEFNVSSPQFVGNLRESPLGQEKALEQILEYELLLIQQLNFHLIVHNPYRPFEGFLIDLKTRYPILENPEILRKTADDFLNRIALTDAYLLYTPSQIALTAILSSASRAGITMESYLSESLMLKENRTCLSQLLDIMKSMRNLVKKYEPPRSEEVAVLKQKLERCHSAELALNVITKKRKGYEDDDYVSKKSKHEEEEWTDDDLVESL
Cdk7-cyclin H, sequence (P51948 whole entry partner): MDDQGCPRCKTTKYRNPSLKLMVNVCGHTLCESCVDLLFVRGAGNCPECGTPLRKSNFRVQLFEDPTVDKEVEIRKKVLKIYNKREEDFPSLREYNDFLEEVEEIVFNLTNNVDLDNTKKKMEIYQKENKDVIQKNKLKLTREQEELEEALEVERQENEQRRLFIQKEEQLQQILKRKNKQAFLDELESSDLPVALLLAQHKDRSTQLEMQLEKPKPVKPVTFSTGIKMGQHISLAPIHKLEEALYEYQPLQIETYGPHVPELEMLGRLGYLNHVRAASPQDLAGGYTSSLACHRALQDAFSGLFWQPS
IGF-1 R, sequence (P08069 31-1367): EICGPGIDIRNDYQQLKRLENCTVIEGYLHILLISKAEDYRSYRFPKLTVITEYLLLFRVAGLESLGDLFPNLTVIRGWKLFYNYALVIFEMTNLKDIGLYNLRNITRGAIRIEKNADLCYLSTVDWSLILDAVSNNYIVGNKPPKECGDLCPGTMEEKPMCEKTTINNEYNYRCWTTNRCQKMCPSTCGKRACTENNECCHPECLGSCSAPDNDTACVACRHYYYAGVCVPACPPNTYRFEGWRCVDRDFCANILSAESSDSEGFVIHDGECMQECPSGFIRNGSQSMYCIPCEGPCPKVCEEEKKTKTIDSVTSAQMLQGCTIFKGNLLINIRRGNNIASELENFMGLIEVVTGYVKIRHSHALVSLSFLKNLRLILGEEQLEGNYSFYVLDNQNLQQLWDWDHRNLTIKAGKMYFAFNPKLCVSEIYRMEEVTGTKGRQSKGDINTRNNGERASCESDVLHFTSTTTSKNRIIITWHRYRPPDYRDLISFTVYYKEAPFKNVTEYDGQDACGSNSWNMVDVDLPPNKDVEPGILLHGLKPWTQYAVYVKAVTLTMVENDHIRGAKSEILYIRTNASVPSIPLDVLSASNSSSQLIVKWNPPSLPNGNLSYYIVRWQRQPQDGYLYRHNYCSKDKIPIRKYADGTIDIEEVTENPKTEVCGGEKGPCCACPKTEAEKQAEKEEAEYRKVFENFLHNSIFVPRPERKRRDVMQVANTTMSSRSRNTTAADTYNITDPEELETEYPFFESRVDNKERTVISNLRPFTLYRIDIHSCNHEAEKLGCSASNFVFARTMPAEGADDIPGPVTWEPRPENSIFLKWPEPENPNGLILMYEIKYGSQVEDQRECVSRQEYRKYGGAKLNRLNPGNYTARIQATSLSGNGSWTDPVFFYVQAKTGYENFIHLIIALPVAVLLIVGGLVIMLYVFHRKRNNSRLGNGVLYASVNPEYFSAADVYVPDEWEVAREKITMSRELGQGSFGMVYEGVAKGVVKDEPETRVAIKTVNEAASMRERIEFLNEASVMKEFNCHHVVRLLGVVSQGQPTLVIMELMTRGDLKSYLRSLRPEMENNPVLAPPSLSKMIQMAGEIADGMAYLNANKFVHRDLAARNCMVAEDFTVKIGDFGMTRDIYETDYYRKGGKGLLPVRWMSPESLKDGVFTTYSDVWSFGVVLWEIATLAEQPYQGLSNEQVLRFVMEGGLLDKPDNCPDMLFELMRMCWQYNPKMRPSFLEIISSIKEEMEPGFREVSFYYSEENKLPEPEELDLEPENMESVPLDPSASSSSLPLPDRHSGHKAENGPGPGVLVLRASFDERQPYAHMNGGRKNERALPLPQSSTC

SMILES: O=C(c1ccccc1-c1ccccc1)N1CCc2c([nH]c3ccccc23)C1 [BPT, 2-(biphenyl-2-carbonyl)-2,3,4,9-tetrahydro-1H-pyrido[3,4-b]indole]
- IC50 [1]: > 1000 µM
- IC50 [2]: > 10 µM
- IC50 [3]: > 10 µM
- IC50 [4]: > 10 µM
- state of relaxed (negatively supercoiled) plasmid DNA after treatment ([5]; relaxed pBluescript DNA as substrate, BPT up to 100 μM, fascaplysin 1 μM): remained relaxed
- hindrance of topoisomerase-I catalysed DNA relaxation ([5]; supercoiled pBluescript DNA, fascaplysin 10 and 1 µM, BPT 10 and 100 µM): does not hinder DNA relaxation process; also recorded: does not intercalate
- IC50 [6]: 0.85 µM
- IC50 [7]: 0.74 µM
- IC50 [8]: 0.92 µM
- IC50 ([9]; Homo sapiens, Calu-1, 48 h, MTT, read-out: IC50 cell growth inhibition, Calu-1): 2.8 µM
- resistance of Calu-1 cells to growth inhibition ([9]; relative to other cell lines): two- to three-fold
- cells in G2/M ([10]; A549, IC50 concentration): 82%
- cells in G0/G1 ([10]; A549, IC70 concentration): 15%
- cells in G2/M ([10]; A549, IC70 concentration): 59%
- cells in Sub G1 (apoptotic) ([10]; A549, IC70 concentration): 13%
- Vmax of tubulin polymerization ([11]; 0.5 μM): 12.5 mOD/min
- Vmax of tubulin polymerization ([11]; 1 μM): 9.2 mOD/min
- Vmax of tubulin polymerization ([11]; 2.5 μM): 3 mOD/min
- Vmax of tubulin polymerization ([11]; 5 μM): 0.5 mOD/min
- reduction in final polymer mass ([11]; 0.5-5 μM): up to 80%
